Results: US9409905B2, “Antibacterial compounds and methods for use” (PTC THERAPEUTICS, INC., priority 2011, dated 2016)
In brackets after ≈: the same amount, converted by molar mass.

Experiments:
E. coli 25922 = assay: Antibacterial activity, microbroth dilution MIC (Table 1); assay type: cell-based, Escherichia coli; conditions: Escherichia coli; microbroth dilution; control Gram-negative E. coli 25922 strain; read-out: MIC, 25922
In short: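 Growth inhibition by microbroth dilution. MIC = lowest μg/mL with no visible growth. Strain 25922 is the control Gram-negative; BAS849 is hypersensitive.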

[1] = system: Escherichia coli (E. coli) BAS849; assay: as above; assay type: cell-based; conditions: microbroth dilution, super sensitive Gram-negative E. coli BAS849, read-out: MIC, BAS849
In short: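 Microbroth dilution was used. MIC, in μg/mL, is the lowest drug concentration preventing macroscopically visible growth under the test conditions.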

[2] = system: Staphylococcus aureus (S. aureus) 29213; assay: as above; assay type: cell-based; conditions: microbroth dilution, Gram-positive S. aureus 29213, read-out: MIC, 29213
In short: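 Broth microdilution against S. aureus 29213, E. coli 25922 and hypersensitive E. coli BAS849. MIC in μg/mL is the lowest drug concentration preventing macroscopically visible growth under test conditions.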

[3] = system: Acinetobacter baumannii (A. baumannii) BAA747; assay: Antibacterial activity, MIC (Table 4); assay type: cell-based; conditions: A. baumannii BAA747, read-out: MIC, BAA747
In short: (§1)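 The resistant panel comprises multi-drug resistant clinical isolates. All strains were tested by microbroth dilution, with the MIC in μg/mL taken as the lowest concentration that prevented macroscopically visible growth.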

K. pneumoniae MXX1232 = assay: Antibacterial activity, MIC, resistant strain (Table 4); assay type: cell-based; conditions: Klebsiella pneumoniae, MXX1232; resistant K. pneumoniae MMX1232, multi-drug resistant clinical isolate; read-out: MIC, MMX1232
In short: as §1

A. baumannii MXX2240 = assay: as above; assay type: cell-based; conditions: Acinetobacter baumannii, MXX2240; resistant A. baumannii MMX2240, multi-drug resistant clinical isolate; read-out: MIC, MMX2240
In short: as §1

E. coli LZ3111 = assay: Antibacterial activity, MIC, quinolone resistant strain (Table 2); assay type: cell-based; conditions: Escherichia coli, LZ3111, read-out: MIC LZ3111
In short: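 MIC values (μg/mL) came from a microbroth dilution assay, scored as the lowest drug concentration at which no growth was visible by eye.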

E. coli ELZ4000 = assay: Antibacterial activity, MIC, multi-drug resistant clinical isolate (Table 3); assay type: cell-based; conditions: Escherichia coli, ELZ4000, read-out: MIC ELZ4000
Text: (§2) The antibacterial activity from a microbroth dilution method may be presented as the minimum inhibitory concentration (MIC in μg/mL). The MIC value is the lowest concentration of drug which prevents macroscopically visible growth under test conditions.
(§3) Antibacterial activity of test compounds against E. coli ELZ4000 and E. coli ELZ4251 multi-drug resistant clinical isolates is shown in Table 3.

E. coli ELZ4251 = assay: as above; assay type: cell-based; conditions: Escherichia coli
Text: as §2, §3

[4] = system: Klebsiella pneumoniae (K. pneumoniae) 35657; assay: Antibacterial activity, MIC (Table 4); assay type: cell-based; conditions: K. pneumoniae 35657, read-out: MIC, 35657
In short: as §1

[5] = system: Pseudomonas aeruginosa (P. aeruginosa) 27853; assay: Antibacterial activity, MIC (Table 5); assay type: cell-based; conditions: P. aeruginosa 27853, read-out: MIC, 27853
In short: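 Values are MICs in μg/mL, read as the lowest concentration at which no growth is visible by eye. They were determined by a microbroth dilution method.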

SMILES | MIC (E. coli 25922) [µg/mL] | MIC [1] [µg/mL] | MIC [2] [µg/mL] | MIC [3] [µg/mL] | MIC (K. pneumoniae MXX1232) [µg/mL] | MIC (A. baumannii MXX2240) [µg/mL] | MIC (E. coli LZ3111) [µg/mL] | MIC (E. coli ELZ4000) [µg/mL] | MIC (E. coli ELZ4251) [µg/mL] | MIC [4] [µg/mL] | MIC [5] [µg/mL]
CCc1c(-c2ccc3c(ccn3CCO)c2)[nH]c(=O)c(C(=O)O)c1O [Cpd 24, 5-ethyl-4-hydroxy-6-(1-(2-hydroxyethyl)-1H-indol-5-yl)-2-oxo-1,2-dihydropyridine-3-carboxylic acid] | 3.5 to 12.5 (≈ 10.2 to 36.5 µM) | < 1 | 3.5 to 12.5 (≈ 10.2 to 36.5 µM) | 3.5 to 12.5 (≈ 10.2 to 36.5 µM) | 12.5 to 150 (≈ 36.5 to 438 µM) | 12.5 to 150 (≈ 36.5 to 438 µM) | 12.5 to 150 (≈ 36.5 to 438 µM) | 12.5 to 150 (≈ 36.5 to 438 µM) | 12.5 to 150 (≈ 36.5 to 438 µM) |  | 
CCc1c(-c2ccc3c(c2)cc(CN2CC[C@@H](F)C2)n3C)[nH]c(=O)c(C(=O)O)c1O [Cpd 177, (R)-5-ethyl-6-(2-((3-fluoropyrrolidin-1-yl)methyl)-1-methyl-1H-indol-5-yl)-4-hydroxy-2-oxo-1,2-dihydropyridine-3-carboxylic acid] | 1 to 3.5 (≈ 2.42 to 8.47 µM) | < 1 | 3.5 to 12.5 (≈ 8.47 to 30.2 µM) |  | 12.5 to 150 (≈ 30.2 to 363 µM) |  | 3.5 to 12.5 (≈ 8.47 to 30.2 µM) | 12.5 to 150 (≈ 30.2 to 363 µM) | 3.5 to 12.5 (≈ 8.47 to 30.2 µM) | 1 to 3.5 (≈ 2.42 to 8.47 µM) | 12.5 to 150 (≈ 30.2 to 363 µM)
CCc1c(-c2ccc3c(c2)cc(CN2CCCC2CN(C)C)n3C)[nH]c(=O)c(C(=O)O)c1O (stereo not drawn) [Cpd 202, 6-(2-((2-((dimethylamino)methyl)pyrrolidin-1-yl)methyl)-1-methyl-1H-indol-5-yl)-5-ethyl-4-hydroxy-2-oxo-1,2-dihydropyridine-3-carboxylic acid] | 3.5 to 12.5 (≈ 7.73 to 27.6 µM) | < 1 | 12.5 to 150 (≈ 27.6 to 331 µM) | 12.5 to 150 (≈ 27.6 to 331 µM) |  |  | 3.5 to 12.5 (≈ 7.73 to 27.6 µM) | 12.5 to 150 (≈ 27.6 to 331 µM) | 12.5 to 150 (≈ 27.6 to 331 µM) |  | 12.5 to 150 (≈ 27.6 to 331 µM)
CCc1c(-c2ccc3c(c2)cc(CN2C[C@H]4CCC[C@@H](N)[C@H]4C2)n3C)[nH]c(=O)c(C(=O)O)c1O [Cpd 284, 6-(2-(((3aR,4R,7aS)-4-amino-1H-isoindol-2(3H,3aH,4H,5H,6H,7H,7aH)-yl)methyl)-1-methyl-1H-indol-5-yl)-5-ethyl-4-hydroxy-2-oxo-1,2-dihydropyridine-3-carboxylic acid] | 1 to 3.5 (≈ 2.15 to 7.53 µM) | < 1 | 12.5 to 150 (≈ 26.9 to 323 µM) |  |  |  | 3.5 to 12.5 (≈ 7.53 to 26.9 µM) | 12.5 to 150 (≈ 26.9 to 323 µM) | 12.5 to 150 (≈ 26.9 to 323 µM) |  | 3.5 to 12.5 (≈ 7.53 to 26.9 µM)
CCc1c(-c2ccc3c(c2)cc(CN2C[C@H]4C[C@@H](N)C[C@H]4C2)n3C)[nH]c(=O)c(C(=O)O)c1O [Cpd 287, 6-(2-(((3aR,5r,6aS)-5-aminohexahydrocyclopenta[c]pyrrol-2(1H)-yl)methyl)-1-methyl-1H-indol-5-yl)-5-ethyl-4-hydroxy-2-oxo-1,2-dihydropyridine-3-carboxylic acid] | 3.5 to 12.5 (≈ 7.77 to 27.7 µM) | < 1 | 3.5 to 12.5 (≈ 7.77 to 27.7 µM) |  |  |  | 3.5 to 12.5 (≈ 7.77 to 27.7 µM) | 12.5 to 150 (≈ 27.7 to 333 µM) | 12.5 to 150 (≈ 27.7 to 333 µM) |  | 12.5 to 150 (≈ 27.7 to 333 µM)
CCc1c(-c2ccc3c(c2)cc(CN2C[C@H]4C[C@@H](N(C)Cc5ccccc5)C[C@H]4C2)n3C)[nH]c(=O)c(C(=O)O)c1O [Cpd 288, 6-(2-(((3aR,5r,6aS)-5-(benzyl(methyl)amino)hexahydrocyclopenta[c]pyrrol-2(1H)-yl)methyl)-1-methyl-1H-indol-5-yl)-5-ethyl-4-hydroxy-2-oxo-1,2-dihydropyridine-3-carboxylic acid] | 1 to 3.5 (≈ 1.8 to 6.31 µM) | < 1 | 3.5 to 12.5 (≈ 6.31 to 22.5 µM) |  |  |  | 12.5 to 150 (≈ 22.5 to 270 µM) | 12.5 to 150 (≈ 22.5 to 270 µM) | 12.5 to 150 (≈ 22.5 to 270 µM) |  | 12.5 to 150 (≈ 22.5 to 270 µM)
CCc1c(-c2ccc3c(c2)cc(CN2C[C@H]4C[C@@H](NC)C[C@H]4C2)n3C)[nH]c(=O)c(C(=O)O)c1O [Cpd 289, 5-ethyl-4-hydroxy-6-(1-methyl-2-(((3aR,5r,6aS)-5-(methylamino)hexahydrocyclopenta[c]pyrrol-2(1H)-yl)methyl)-1H-indol-5-yl)-2-oxo-1,2-dihydropyridine-3-carboxylic acid] | 12.5 to 150 (≈ 26.9 to 323 µM) | 1 to 3.5 (≈ 2.15 to 7.53 µM) | 12.5 to 150 (≈ 26.9 to 323 µM) | 12.5 to 150 (≈ 26.9 to 323 µM) |  |  | 3.5 to 12.5 (≈ 7.53 to 26.9 µM) | 12.5 to 150 (≈ 26.9 to 323 µM) | 12.5 to 150 (≈ 26.9 to 323 µM) |  | 12.5 to 150 (≈ 26.9 to 323 µM)
CCc1c(-c2ccc3c(c2)cc(CNCCN(C)C)n3C)[nH]c(=O)c(C(=O)O)c1O [Cpd 302, 6-(2-((2-(dimethylamino)ethylamino)methyl)-1-methyl-1H-indol-5-yl)-5-ethyl-4-hydroxy-2-oxo-1,2-dihydropyridine-3-carboxylic acid] | 1 to 3.5 (≈ 2.42 to 8.49 µM) | < 1 | 12.5 to 150 (≈ 30.3 to 364 µM) | 3.5 to 12.5 (≈ 8.49 to 30.3 µM) |  |  | 3.5 to 12.5 (≈ 8.49 to 30.3 µM) | 12.5 to 150 (≈ 30.3 to 364 µM) | 3.5 to 12.5 (≈ 8.49 to 30.3 µM) |  | 12.5 to 150 (≈ 30.3 to 364 µM)
Cn1c(CN2CCCC2)cc2cc(-c3[nH]c(=O)c(C(=O)O)c(O)c3C3CC3)ccc21 [Cpd 323, 5-cyclopropyl-4-hydroxy-6-(1-methyl-2-(pyrrolidin-1-ylmethyl)-1H-indol-5-yl)-2-oxo-1,2-dihydropyridine-3-carboxylic acid] | 12.5 to 150 (≈ 30.7 to 368 µM) | 1 to 3.5 (≈ 2.45 to 8.59 µM) | 12.5 to 150 (≈ 30.7 to 368 µM) | 12.5 to 150 (≈ 30.7 to 368 µM) |  |  | 3.5 to 12.5 (≈ 8.59 to 30.7 µM) | 12.5 to 150 (≈ 30.7 to 368 µM) | 3.5 to 12.5 (≈ 8.59 to 30.7 µM) |  | 12.5 to 150 (≈ 30.7 to 368 µM)
Cn1c(CN2CCC2)cc2cc(-c3[nH]c(=O)c(C(=O)O)c(O)c3C3CC3)ccc21 [Cpd 324, 6-(2-(azetidin-1-ylmethyl)-1-methyl-1H-indol-5-yl)-5-cyclopropyl-4-hydroxy-2-oxo-1,2-dihydropyridine-3-carboxylic acid] | 12.5 to 150 (≈ 31.8 to 381 µM) | 1 to 3.5 (≈ 2.54 to 8.9 µM) | 12.5 to 150 (≈ 31.8 to 381 µM) | 12.5 to 150 (≈ 31.8 to 381 µM) |  |  | 3.5 to 12.5 (≈ 8.9 to 31.8 µM) | 3.5 to 12.5 (≈ 8.9 to 31.8 µM) | 3.5 to 12.5 (≈ 8.9 to 31.8 µM) |  | 12.5 to 150 (≈ 31.8 to 381 µM)
Cn1c(CNCC2CC2)cc2cc(-c3[nH]c(=O)c(C(=O)O)c(O)c3C3CC3)ccc21 [Cpd 325, 5-cyclopropyl-6-(2-((cyclopropylmethylamino)methyl)-1-methyl-1H-indol-5-yl)-4-hydroxy-2-oxo-1,2-dihydropyridine-3-carboxylic acid] | 12.5 to 150 (≈ 30.7 to 368 µM) | 3.5 to 12.5 (≈ 8.59 to 30.7 µM) | 12.5 to 150 (≈ 30.7 to 368 µM) | 12.5 to 150 (≈ 30.7 to 368 µM) |  |  | 3.5 to 12.5 (≈ 8.59 to 30.7 µM) | 3.5 to 12.5 (≈ 8.59 to 30.7 µM) | 1 to 3.5 (≈ 2.45 to 8.59 µM) |  | 12.5 to 150 (≈ 30.7 to 368 µM)
Cn1c(CN2CCC2)cc2cc(-c3cc(O)c(C(=O)O)c(=O)[nH]3)ccc21 [Cpd 328, 6-(2-(azetidin-1-ylmethyl)-1-methyl-1H-indol-5-yl)-4-hydroxy-2-oxo-1,2-dihydropyridine-3-carboxylic acid] | 12.5 to 150 (≈ 35.4 to 424 µM) | 3.5 to 12.5 (≈ 9.9 to 35.4 µM) | 12.5 to 150 (≈ 35.4 to 424 µM) | 12.5 to 150 (≈ 35.4 to 424 µM) |  |  | 3.5 to 12.5 (≈ 9.9 to 35.4 µM) | 12.5 to 150 (≈ 35.4 to 424 µM) | 12.5 to 150 (≈ 35.4 to 424 µM) |  | 12.5 to 150 (≈ 35.4 to 424 µM)
CCc1c(-c2ccc3c(c2)cc(CN2CCCCC2)n3C)[nH]c(=O)c(C(=O)O)c1N [Cpd 331, 4-amino-5-ethyl-6-(1-methyl-2-(piperidin-1-ylmethyl)-1H-indol-5-yl)-2-oxo-1,2-dihydropyridine-3-carboxylic acid] | 3.5 to 12.5 (≈ 8.57 to 30.6 µM) | < 1 | 12.5 to 150 (≈ 30.6 to 367 µM) |  |  |  | 12.5 to 150 (≈ 30.6 to 367 µM) | 12.5 to 150 (≈ 30.6 to 367 µM) | 12.5 to 150 (≈ 30.6 to 367 µM) |  | 12.5 to 150 (≈ 30.6 to 367 µM)
